Results: publication PMC9374744, “Structural basis for receptor selectivity and inverse agonism in S1P5 receptors” (Nature Communications, 2022)
Values joined by “and” are separate entries in the source; they are usually repeats but may differ in a detail not shown here. Identical values can stand only once.

Assays:
[1] = biological target: human S1P5 R111A mutant (Homo sapiens, UniProt Q9H228, R111A); assay: BRET-based cAMP Gi signaling assay, S1P5 R111A; conditions: inverse agonism
[2] = biological target: human S1P5 M296W mutant (Homo sapiens, UniProt Q9H228, M296W); assay: BRET-based cAMP Gi signaling assay, S1P5 M296W; conditions: for BRET ratio, single replicate readings (Supplementary Figure 6h): listed as ONO
[3] = biological target: human S1P5 V115A mutant (Homo sapiens, UniProt Q9H228, V115A); assay: BRET-based cAMP Gi signaling assay, S1P5 V115A; conditions: inverse agonism
[4] = biological target: human S1P5 L292A mutant (Homo sapiens, UniProt Q9H228, L292A); assay: BRET-based cAMP Gi signaling assay, S1P5 L292A; conditions: inverse agonism
[5] = biological target: human S1P5 G293A mutant (Homo sapiens, UniProt Q9H228, G293A); assay: BRET-based cAMP Gi signaling assay, S1P5 G293A; conditions: inverse agonism
[6] = biological target: human S1P5 E112A mutant (Homo sapiens, UniProt Q9H228, E112A); assay: BRET-based cAMP Gi signaling assay, S1P5 E112A; conditions: inverse agonism
[7] = biological target: human S1P5 L318Q mutant (Homo sapiens, UniProt Q9H228, L318Q); assay: BRET-based cAMP Gi signaling assay, S1P5 L318Q; conditions: inverse agonism
[8] = biological target: human S1P5 C43F mutant (Homo sapiens, UniProt Q9H228, C43F); assay: BRET-based cAMP Gi signaling assay, S1P5 C43F; conditions: inverse agonism
[9] = biological target: human S1P5 N92A mutant (Homo sapiens, UniProt Q9H228, N92A); assay: BRET-based cAMP Gi signaling assay, S1P5 N92A; conditions: inverse agonism
[10] = biological target: human S1P5 E112Q mutant (Homo sapiens, UniProt Q9H228, E112Q); assay: BRET-based cAMP Gi signaling assay, S1P5 E112Q; conditions: inverse agonism
[11] = biological target: human S1P5 Y19A mutant (Homo sapiens, UniProt Q9H228, Y19A); assay: BRET-based cAMP Gi signaling assay, S1P5 Y19A; conditions: inverse agonism
[12] = Figure 2c source data, N/R = no response

human S1P5 M296W mutant, sequence (Q9H228 whole entry M296W): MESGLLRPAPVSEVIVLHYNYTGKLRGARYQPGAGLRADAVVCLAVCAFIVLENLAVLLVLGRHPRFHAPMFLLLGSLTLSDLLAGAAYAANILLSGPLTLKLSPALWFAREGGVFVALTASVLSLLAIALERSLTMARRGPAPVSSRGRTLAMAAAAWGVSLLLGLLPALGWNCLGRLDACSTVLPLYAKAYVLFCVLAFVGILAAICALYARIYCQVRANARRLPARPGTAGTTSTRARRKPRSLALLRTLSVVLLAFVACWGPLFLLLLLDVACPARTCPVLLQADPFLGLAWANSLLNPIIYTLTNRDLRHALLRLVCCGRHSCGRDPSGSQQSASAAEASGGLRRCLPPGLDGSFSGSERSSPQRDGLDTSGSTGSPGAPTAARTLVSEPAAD
human S1P5 C43F mutant, sequence (Q9H228 whole entry C43F): as the sequence (Q9H228 whole entry M296W) above, with C43F, W296M counted along it
human S1P5 L292A mutant, sequence (Q9H228 whole entry L292A): as the sequence (Q9H228 whole entry M296W) above, with L292A, W296M counted along it
human S1P5 L318Q mutant, sequence (Q9H228 whole entry L318Q): as the sequence (Q9H228 whole entry M296W) above, with W296M, L318Q counted along it
human S1P5 V115A mutant, sequence (Q9H228 whole entry V115A): as the sequence (Q9H228 whole entry M296W) above, with V115A, W296M counted along it
human S1P5 G293A mutant, sequence (Q9H228 whole entry G293A): as the sequence (Q9H228 whole entry M296W) above, with G293A, W296M counted along it
human S1P5 Y19A mutant, sequence (Q9H228 whole entry Y19A): as the sequence (Q9H228 whole entry M296W) above, with Y19A, W296M counted along it
human S1P5 N92A mutant, sequence (Q9H228 whole entry N92A): as the sequence (Q9H228 whole entry M296W) above, with N92A, W296M counted along it
human S1P5 E112A mutant, sequence (Q9H228 whole entry E112A): as the sequence (Q9H228 whole entry M296W) above, with E112A, W296M counted along it
human S1P5 E112Q mutant, sequence (Q9H228 whole entry E112Q): as the sequence (Q9H228 whole entry M296W) above, with E112Q, W296M counted along it
human S1P5 R111A mutant, sequence (Q9H228 whole entry R111A): as the sequence (Q9H228 whole entry M296W) above, with R111A, W296M counted along it

Structure (SMILES): O=C(O)CCCN1CCc2cccc(OCCc3cccc4ccccc34)c2CC1 [ONO-5430608, 4-{6-[2-(1-naphthyl)ethoxy]-1,2,4,5-tetrahydro-3H-3-benzazepin-3-yl} butanoic acid]
- ONO-5430608 pEC50, single experiments #1-#3 [1, 12]: N/R
- ONO, pEC50, M ([1]; n=3, N/R = no response): N/R
- BRET ratio, single replicate readings (Supplementary Figure 6h) ([2]; [ONO] 0.169351 nM): 0.7521 and 0.7659 and 0.7554 and 0.7607 and 0.7663 and 0.7553 and 0.7695 and 0.7638 and 0.7661
- BRET ratio, single replicate readings (Supplementary Figure 6h) ([2]; [ONO] 0.508053 nM): 0.7597 and 0.7659 and 0.7636 and 0.7627 and 0.756 and 0.7622 and 0.7625 and 0.7687 and 0.7621
- BRET ratio, single replicate readings (Supplementary Figure 6h) ([2]; [ONO] 1.52416 nM): 0.7595 and 0.7589 (2×) and 0.7566 and 0.7528 and 0.7609 and 0.7625 and 0.7671 and 0.7682
- BRET ratio, single replicate readings (Supplementary Figure 6h) ([2]; [ONO] 4.57247 nM): 0.7595 and 0.7699 and 0.7641 and 0.7574 and 0.7643 and 0.7563 and 0.7684 and 0.7632 and 0.7578
- BRET ratio, single replicate readings (Supplementary Figure 6h) ([2]; [ONO] 13.7174 nM): 0.7542 and 0.7653 and 0.7527 and 0.7649 and 0.7654 and 0.7644 and 0.7698 and 0.7669 and 0.7638
- BRET ratio, single replicate readings (Supplementary Figure 6h) ([2]; [ONO] 41.1523 nM): 0.7431 and 0.7677 and 0.7621 and 0.752 and 0.762 and 0.7675 and 0.761 and 0.7565 and 0.7598
- BRET ratio, single replicate readings (Supplementary Figure 6h) ([2]; [ONO] 123.457 nM): 0.7416 and 0.7628 and 0.7677 and 0.7662 and 0.759 and 0.753 and 0.7663 and 0.7668 and 0.7626
- BRET ratio, single replicate readings (Supplementary Figure 6h) ([2]; [ONO] 370.37 nM): 0.7572 and 0.757 and 0.7547 and 0.7694 and 0.7517 and 0.7654 and 0.7672 and 0.761 and 0.7564
- BRET ratio, single replicate readings (Supplementary Figure 6h) ([2]; [ONO] 1111.11 nM): 0.7578 and 0.7573 and 0.7667 and 0.7569 and 0.7627 and 0.7676 and 0.756 and 0.7697 and 0.7628
- BRET ratio, single replicate readings (Supplementary Figure 6h) ([2]; [ONO] 3333.33 nM): 0.7629 and 0.7592 and 0.7535 and 0.7543 and 0.758 and 0.7671 and 0.744 and 0.7683 and 0.7586
- ONO-5430608 pEC50, single experiments #1-#3 ([2]; inverse agonism, Figure 2c source data, N/R = no response): N/R
- ONO, pEC50, M ([2]; inverse agonism, n=3, N/R = no response): N/R
- EC50 ([3]; ONO, pEC50, M, V115A, mean ± SD, n=3): 0.0295 µM
- EC50 ([3]; ONO-5430608 pEC50, single experiments #1-#3, V115A, Figure 2c source data): 0.0306 µM and 0.0248 µM and 0.0345 µM
- EC50 ([4]; ONO, pEC50, M, L292A, mean ± SD, n=3): 0.0219 µM
- EC50 ([4]; ONO-5430608 pEC50, single experiments #1-#3, L292A, Figure 2c source data): 0.0189 µM and 0.024 µM and 0.0232 µM
- EC50 ([5]; ONO, pEC50, M, G293A, mean ± SD, n=3): 0.00457 µM
- EC50 ([5]; ONO-5430608 pEC50, single experiments #1-#3, G293A, Figure 2c source data): 0.00511 µM and 0.00457 µM and 0.00412 µM
- ONO-5430608 pEC50, single experiments #1-#3 [6, 12]: N/R
- ONO, pEC50, M ([6]; n=3, N/R = no response): N/R
- EC50 ([7]; ONO, pEC50, M, L318Q, mean ± SD, n=3): 0.0224 µM
- EC50 ([7]; ONO-5430608 pEC50, single experiments #1-#3, L318Q, Figure 2c source data): 0.023 µM and 0.0246 µM and 0.0204 µM
- EC50 ([8]; ONO, pEC50, M, C43F, mean ± SD, n=3): 0.00447 µM
- EC50 ([8]; ONO-5430608 pEC50, single experiments #1-#3, C43F, Figure 2c source data): 0.00391 µM and 0.00449 µM and 0.00496 µM
- ONO-5430608 pEC50, single experiments #1-#3 [9, 12]: N/R
- ONO, pEC50, M ([9]; n=3, N/R = no response): N/R
- ONO-5430608 pEC50, single experiments #1-#3 [10, 12]: N/R
- ONO, pEC50, M ([10]; n=3, N/R = no response): N/R
- ONO-5430608 pEC50, single experiments #1-#3 [11, 12]: N/R
- ONO, pEC50, M ([11]; n=3, N/R = no response): N/R
